According to US20230278972A1, “SUBSTITUTED HALOALKYL SULFONANILIDE HERBICIDES” (FMC Corporation, priority 2020, published 2023):

What was measured:
Type in all cases: in vivo
[1] = system: kochia (Bassia scoparia); test: Test A postemergence, kochia; details: Postemergence, 0 to 100 scale (0 no effect, 100 complete control); for Kochia plant response rating: visual injury vs untreated controls after approx. 10 days
Source text: (§1) Seeds of plant species selected from barnyardgrass (Echinochloa crus-galli), kochia (Bassia scoparia), ragweed (common ragweed, Ambrosia artemisiifolia), Ryegrass, Italian (Italian ryegrass, Lolium multiflorum), Foxtail, Giant (giant foxtail, Setaria faberi), and pigweed (Amaranthus retroflexus) were planted into a blend of loam soil and sand and treated preemergence with a directed soil spray using test chemicals formulated in a non-phytotoxic solvent mixture which included a surfactant. At the same time, plants selected from these weed species and also wheat (Triticum aestivum), corn (Zea mays), blackgrass (Alopecurus myosuroides), and galium (catchweed bedstraw, Galium aparine) were planted in pots containing the same blend of loam soil and sand and treated with postemergence applications of test chemicals formulated in the same manner. Plants ranged in height from 2 to 10 cm and were in the one- to two-leaf stage for the postemergence treatment. […] A dash (-) response means no test result.

[2] = system: Foxtail, Giant (giant foxtail, Setaria faberi); test: Test A preemergence, Foxtail, Giant; details: Preemergence; for Foxtail, Giant plant response rating: visual injury on 0 to 100 scale (0 no effect, 100 complete control), approximately 10 days; for Plant response rating, Foxtail, Giant: 0 to 100 scale (0 no effect, 100 complete control)
Source text: as §1

[3] = system: barnyardgrass (Echinochloa crus-galli); test: Test A preemergence, barnyardgrass; details: Preemergence; for Barnyardgrass plant response rating: visual injury on 0 to 100 scale (0 no effect, 100 complete control), approximately 10 days; for Plant response rating, Barnyardgrass: 0 to 100 scale (0 no effect, 100 complete control)
Source text: as §1

[4] = system: pigweed (Amaranthus retroflexus); test: Test A postemergence, pigweed; details: Postemergence, 0 to 100 scale (0 no effect, 100 complete control); for Pigweed plant response rating: visual injury vs untreated controls after approx. 10 days
Source text: as §1

[5] = system: blackgrass (Alopecurus myosuroides); test: Test A postemergence, blackgrass; details: Postemergence, 0 to 100 scale (0 no effect, 100 complete control); for Blackgrass plant response rating: visual injury vs untreated controls after approx. 10 days
Source text: as §1

[6] = system: kochia (Bassia scoparia); test: Test A preemergence, kochia; details: Preemergence; for Kochia plant response rating: visual injury on 0 to 100 scale (0 no effect, 100 complete control), approximately 10 days; for Plant response rating, Kochia: 0 to 100 scale (0 no effect, 100 complete control)
Source text: as §1

[7] = system: ragweed (common ragweed, Ambrosia artemisiifolia); test: Test A postemergence, ragweed; details: Postemergence, 0 to 100 scale (0 no effect, 100 complete control); for Ragweed plant response rating: visual injury vs untreated controls after approx. 10 days
Source text: as §1

[8] = system: Ryegrass, Italian (Italian ryegrass, Lolium multiflorum); test: Test A preemergence, Ryegrass, Italian; details: Preemergence; for Ryegrass, Italian plant response rating: visual injury on 0 to 100 scale (0 no effect, 100 complete control), approximately 10 days; for Plant response rating, Ryegrass, Italian: 0 to 100 scale (0 no effect, 100 complete control)
Source text: as §1

[9] = system: ragweed (common ragweed, Ambrosia artemisiifolia); test: Test A preemergence, ragweed; details: Preemergence; for Ragweed plant response rating: visual injury on 0 to 100 scale (0 no effect, 100 complete control), approximately 10 days; for Plant response rating, Ragweed: 0 to 100 scale (0 no effect, 100 complete control)
Source text: as §1

[10] = system: wheat (Triticum aestivum); test: Test A postemergence, wheat; details: Postemergence, 0 to 100 scale (0 no effect, 100 complete control); for Wheat plant response rating: visual injury vs untreated controls after approx. 10 days
Source text: as §1

[11] = system: galium (catchweed bedstraw, Galium aparine); test: Test A postemergence, galium; details: Postemergence, 0 to 100 scale (0 no effect, 100 complete control); for Galium plant response rating: visual injury vs untreated controls after approx. 10 days
Source text: as §1

[12] = system: Foxtail, Giant (giant foxtail, Setaria faberi); test: Test A postemergence, Foxtail, Giant; details: Postemergence, 0 to 100 scale (0 no effect, 100 complete control); for Foxtail, Giant plant response rating: visual injury vs untreated controls after approx. 10 days
Source text: as §1

[13] = system: barnyardgrass (Echinochloa crus-galli); test: Test A postemergence, barnyardgrass; details: Postemergence, 0 to 100 scale (0 no effect, 100 complete control); for Barnyardgrass plant response rating: visual injury vs untreated controls after approx. 10 days
Source text: as §1

[14] = system: corn (Zea mays); test: Test A postemergence, corn; details: Postemergence, 0 to 100 scale (0 no effect, 100 complete control); for Corn plant response rating: visual injury vs untreated controls after approx. 10 days
Source text: as §1

[15] = system: Ryegrass, Italian (Italian ryegrass, Lolium multiflorum); test: Test A postemergence, Ryegrass, Italian; details: Postemergence, 0 to 100 scale (0 no effect, 100 complete control); for Ryegrass, Italian plant response rating: visual injury vs untreated controls after approx. 10 days
Source text: as §1

[16] = 500 g ai/ha, visual injury approx. 10 days
[17] = 125 g ai/ha, visual injury, approx. 10 days

Row | Compound | Plant response rating, Kochia ([1]; 125 g ai/ha) | Kochia plant response rating ([1]; 500 g ai/ha) | Foxtail, Giant plant response rating ([2]; 125 g ai/ha) | Plant response rating, Foxtail, Giant ([2]; 500 g ai/ha) | Barnyardgrass plant response rating ([3]; 125 g ai/ha) | Plant response rating, Barnyardgrass ([3]; 500 g ai/ha) | Plant response rating, Pigweed ([4]; 125 g ai/ha) | Pigweed plant response rating ([4]; 500 g ai/ha) | Plant response rating, Blackgrass ([5]; 125 g ai/ha) | Blackgrass plant response rating ([5]; 500 g ai/ha) | Kochia plant response rating ([6]; 125 g ai/ha) | Plant response rating, Kochia ([6]; 500 g ai/ha) | Plant response rating, Ragweed ([7]; 125 g ai/ha) | Ragweed plant response rating ([7]; 500 g ai/ha) | Plant response rating, Wheat ([10]; 125 g ai/ha) | Plant response rating, Galium ([11]; 125 g ai/ha) | Plant response rating, Foxtail, Giant ([12]; 125 g ai/ha) | Plant response rating, Barnyardgrass ([13]; 125 g ai/ha) | Plant response rating, Corn ([14]; 125 g ai/ha) | Plant response rating, Ryegrass, Italian ([15]; 125 g ai/ha) | other results
1 | Cc1cc(C)c(C2=NOC3(CCSCC3)C2)cc1NS(=O)(=O)C(F)(F)F [Compound 176] | 40 | 50 | 100 | 100 | 70 | 90 | 60 | 90 | 40 | 70 | 70 | 90 | 60 | 90 | 60 | 90 | 90 | 80 | 70 | 60 | Ryegrass, Italian plant response rating ([8]; 125 g ai/ha): 90; Plant response rating, Ryegrass, Italian ([8]; 500 g ai/ha): 100; Ragweed plant response rating ([9]; 125 g ai/ha): 40; Plant response rating, Ragweed ([9]; 500 g ai/ha): 90; Wheat plant response rating ([10]; 500 g ai/ha): 60; Galium plant response rating ([11]; 500 g ai/ha): 90; Foxtail, Giant plant response rating ([12]; 500 g ai/ha): 90; Barnyardgrass plant response rating ([13]; 500 g ai/ha): 90; Corn plant response rating ([14]; 500 g ai/ha): 80; Ryegrass, Italian plant response rating ([15]; 500 g ai/ha): 80
2 | C#CCN(C)C(=O)c1cc(NS(=O)(=O)C(F)(F)F)c(C)c(F)c1C [Compound 179] | 60 | 70 | 80 | 100 | 90 | 90 | 80 | 90 | 20 | 40 | 90 | 90 | 90 | 90 | 0 | 90 | 70 | 90 | 20 | 40 | Ryegrass, Italian plant response rating ([8]; 125 g ai/ha): 100; Plant response rating, Ryegrass, Italian ([8]; 500 g ai/ha): 100; Ragweed plant response rating ([9]; 125 g ai/ha): 90; Plant response rating, Ragweed ([9]; 500 g ai/ha): 90; Wheat plant response rating ([10]; 500 g ai/ha): 60; Galium plant response rating ([11]; 500 g ai/ha): 90; Foxtail, Giant plant response rating ([12]; 500 g ai/ha): 90; Barnyardgrass plant response rating ([13]; 500 g ai/ha): 90; Corn plant response rating ([14]; 500 g ai/ha): 80; Ryegrass, Italian plant response rating ([15]; 500 g ai/ha): 80
3 | Cc1cc(Cl)c(NS(=O)(=O)C(F)(F)F)cc1C(=O)N1CCOCC1C (stereo not drawn) [Compound 245] | 40 | – | – | – | – | – | 80 | – | 40 | – | – | – | 90 | – | 60 | 90 | 50 | 90 | 20 | 70 | Plant response rating, Kochia [1, 16]: 60; Plant response rating, Foxtail, Giant [2, 17]: 100; Foxtail, Giant plant response rating ([2]; 500 g ai/ha): 100; Plant response rating, Barnyardgrass [3, 17]: 90; Barnyardgrass plant response rating ([3]; 500 g ai/ha): 100; Plant response rating, Pigweed [4, 16]: 90; Plant response rating, Blackgrass [5, 16]: 60; Plant response rating, Kochia [6, 17]: 80; Kochia plant response rating ([6]; 500 g ai/ha): 80; Plant response rating, Ragweed [7, 16]: 90; Plant response rating, Ryegrass, Italian [8, 17]: 80; Ryegrass, Italian plant response rating ([8]; 500 g ai/ha): 100; Plant response rating, Ragweed [9, 17]: 90; Ragweed plant response rating ([9]; 500 g ai/ha): 90; Plant response rating, Wheat [10, 16]: 60; Plant response rating, Galium [11, 16]: 90; Plant response rating, Foxtail, Giant [12, 16]: 90; Plant response rating, Barnyardgrass [13, 16]: 90; Plant response rating, Corn [14, 16]: 60; Plant response rating, Ryegrass, Italian [15, 16]: 80
